# Assay results published in patent US20250381155A1, “USE OF 2-HYDROXYBENZYLAMINE IN THE TREATMENT AND PREVENTION OF PULMONARY HYPERTENSION” (Vanderbilt University, priority 2016, published 2025).
# Entries after “also recorded” stand apart in the source; their conditions may differ.
# Assays:
# WT PMVEC = experiment: Extracellular glutamine to glucose flux ratio in WT PMVEC; assay type: cell-based; conditions: low-dose chetomin
# Experimental: (§1) The present inventors used previously characterized WT and BMPR2 mutant (BMPR2^R899X) pulmonary microvascular endothelial cells isolated from conditionally immortalized murine lines generated on the ImmortoMouse background,^20 and WT and BMPR2 mutant PMVECs from a parent immortalized human line stably expressing either a WT or BMPR2 mutant construct transfected into the parent line and maintained under selection with G418S. […]
# (§2) Glucose and lactate levels were measured using the YSI 2300 Stat Glucose and Lactate Analyzer (Yellow Springs, OH). High performance liquid chromatography (HPLC) was used to quantify amino acid concentrations, with norvaline as an internal standard. […] Flux rates were calculated using the ETA software package.^22
# (§3) The present inventors next wished to determine the molecular events downstream from BMPR2 mutation that contribute to glutamine reliance. […] Then WT and BMPR2 mutant PMVEC was treated with chetomin, a pharmacologic inhibitor of HIF, and assessed glucose and glutamine uptake by quantifying the extracellular flux ratio of glutamine to glucose. […]
# BMPR2 mutant PMVEC = experiment: Extracellular glutamine to glucose flux ratio in BMPR2 mutant PMVEC; assay type: cell-based; conditions: low-dose chetomin
# Experimental: as §1, §2, §3
# BMPR2^R899X mice [1] = experiment: Glutamine synthetase in liver mitochondria and circulating glutamine in treated BMPR2^R899X mice; assay type: in vivo
# Experimental: (§4) To assess mitochondrial respiration in cultured PMVECs, cells were seeded in growth media in a 96-well plate from Seahorse Biosciences (Bilerica, MA) at a seeding density of 50,000 live cells per well. The following day, cells were washed and placed in Seahorse Assay Media supplemented with specific substrates (1 gm/L glucose, 2 mM L-glutamine). After equilibration, oxygen consumption rates were measured on a Seahorse XFe96 analyzer using the Mito Stress Test protocol. For mitochondrial protein measurements, mitochondria were isolated from fresh murine liver tissue as previously described.^24
# (§5) All animal studies were approved by the Vanderbilt IACUC. Male and female FVB/N mice were 10-16 weeks of age. BMPR2^R899X mice were generated and maintained as previously described.^24,25 For 2HOBA studies, 1 gm/L was administered in the drinking water, with water bottles protected from light and water changes every 2-3 days.
# (§6) Having shown that impaired BMPR2 function is associated with loss of SIRT3 function, and that this can be prevented with 2HOBA treatment to scavenge damaging lipid peroxidation products, the present inventors next wished to assess the in vivo metabolic dysfunction downstream from BMPR2 mutation, the relationship to PAH, and the effect of 2HOBA treatment. […]
# WT mice = experiment: Glutamine synthetase in liver mitochondria of treated WT mice; assay type: in vivo; conditions: 2HOBA treatment
# Experimental: as §4, §5, §6
# [2] = pre-clinical animal studies; cited from earlier work
# SIRT3 = experiment: Lysine acetylation and SIRT3 content of the mitochondrial proteome from treated BMPR2^R899X mice (Western blot); assay type: in vivo; conditions: 1 g/L 2HOBA in drinking water
# Experimental: as §4, §5
# Because sirtuin expression and activity is tightly regulated by substrate availability, nutrient intake, physical activity, and interacting signaling pathways operating between organ systems, the role of SIRT3 in BMPR2-mediated PAH is best studied in a murine model system. […] The mitochondrial proteome was assessed for acetylation of lysine residues, with SIRT3 inactivation leading to lysine hyperacetylation. […]
# [3] = Long-term safety, continuous dosing in mice; assay type: in vivo; conditions: over 12 months of continuous dosing in mice
# BMPR2^R899X mice [4] = experiment: Development of PAH in BMPR2^R899X mice (total pulmonary resistance, cardiac output by echocardiography, invasive RVSP); assay type: in vivo
# Experimental: as §5
# Echocardiography was performed on anesthetized mice (isoflurane anesthesia) to determine cardiac output. Right ventricular systolic pressure (RVSP) was invasively measured as described, using bromoethanol as the anesthetic.^24,25
# All statistics were performed using GraphPad Prism 6.0 or Microsoft Excel unless otherwise specified. For animal experiments, sample sizes were chosen based upon previous experiments with approximately 80% of transgenic animals showing RVSP>30 mm Hg. Animals were randomly assigned to treatment groups by cage. For all measurements, investigators were blind to treatments and genotype until data analysis. Data were analyzed using two-tailed t-test, or two-way ANOVA with Tukey's post-test, as indicated. Significance was set at α<0.05 after correction for multiple comparisons.
# Having shown that impaired BMPR2 function is associated with loss of SIRT3 function, and that this can be prevented with 2HOBA treatment to scavenge damaging lipid peroxidation products, the present inventors next wished to assess the in vivo metabolic dysfunction downstream from BMPR2 mutation, the relationship to PAH, and the effect of 2HOBA treatment. The present inventors hypothesized that 2HOBA would prevent the development of PAH in BMPR2^R899X mice and would have a beneficial modulatory effect on glutamine metabolism in vivo. Expression of the BMPR2^R899X allele was sufficient to drive upregulation of glutamine synthetase in skeletal muscle (FIG. 10) and in liver mitochondria (FIG. 7A) compared to WT.
# [5] = 2HOBA vs vehicle-treated mutants
Compound,glutamine to glucose flux ratio (WT PMVEC),glutamine to glucose flux ratio (BMPR2 mutant PMVEC),circulating (plasma) glutamine (BMPR2^R899X mice [1]; 2HOBA-treated BMPR2^R899X mice compared to 2HOBA-treated WT mice),"glutamine synthetase in liver mitochondria (BMPR2^R899X mice [1]; BMPR2^R899X mice, 2HOBA treatment)",glutamine synthetase in liver mitochondrial fraction (WT mice),safety profile [2],total SIRT3 content in the mitochondria (SIRT3),"lysine acetylation in the mitochondrial proteome (SIRT3; Western diet, isolated mitochondria)",toxicity [3],development of pulmonary hypertension as measured by total pulmonary resistance (BMPR2^R899X mice [4]; 2HOBA compared to vehicle-treated mice),cardiac output (BMPR2^R899X mice [4]; [5]),right ventricular systolic pressure (RVSP) (BMPR2^R899X mice [4]; [5])
CN1C(=O)[C@]2(Cc3cn([C@]45C[C@@]67SS[C@@](CO)(C(=O)N6[C@H]4Nc4ccccc45)N(C)C7=O)c4ccccc34)SS[C@@]1(CO)C(=O)N2C [chetomin],no effect; also recorded: essentially unaffected,significantly reduced,,,,,,,,,,
"NCc1ccccc1O [2HOBA, 2-hydroxybenzylamine]",,,significantly lower; also recorded: significantly reduces,reduced,not substantially,excellent safety profile,without affecting,significantly reduced; also recorded: normalized,no significant toxicity,prevented the development of pulmonary hypertension; also recorded: to a level statistically indistinguishable from WT,modestly increased; also recorded: trends toward improved,decreased; also recorded: trends toward a decrease
